Consider 9 molecules from patent US20140163061A1, “Methods For Reducing Blood Pressure” (FibroGen, Inc., priority 2008, published 2014).

This test concerns Nx rats (5/6 nephrectomy, hypertensive chronic kidney disease). Description: Nx rats treated with various HIF prolyl hydroxylase inhibitors, change in systolic blood pressure after four weeks, Example 4. Type of test: in vivo, rat. On the procedure:
A characteristic pathophysiology found in the uremic chronic kidney disease (CKD) population is hypertension. […] (Priyadarshi et al. (2002) Kidney Int 61:542-546; Coleman et al. (2006) Proc Natl Acad Sci USA 103:5965-5970.) The surgical procedure used to generate the rat remnant kidney was performed according to modification of the procedure described by Priyadarshi et al. (supra) or according to modification of the procedure described by Tanaka et al. (2005, Lab Invest 85:1292-1307). Separate studies used either male Sprague Dawley rats (280-300 g) or female Wistar rats (220-250 g).
Animals were divided into two groups of which one group (sham) underwent sham surgery and the other group (Nx) was subjected to 5/6 nephrectomy as follows. Animals were anesthetized under isoflurane, and a midline abdominal incision was made, followed by blunt dissection of the renal pedicles. Two or three branches of the left renal artery were ligated to infarct two thirds of the left kidney, while the right kidney underwent simultaneous nephrectomy. The infarct was verified by observing the change in kidney color. Animal body temperature was maintained constant, and warm (˜37° C.) saline (1.0 mL) was administered directly into the abdomen. Thereafter, the incision was sutured and the animal was allowed to recover and have free access to regular food and water. Animal body weight and mortality were closely monitored.
Starting 35 days after surgery, Nx and sham animals were randomly divided into groups and treated with either vehicle or compound A. Compound was dosed three times per week by oral gavage at 20 or 40 mg/kg compound per dose. Blood pressure (BP) was measured using a Kent XBP1000 system (Kent Scientific Corp., Torrington, Conn.) or a Muromachi tail-cuff blood pressure system (Muromachi Kikai Co., Ltd., Tokyo, Japan), both having volume/pressure recording technology and used according to the manufacturer's instruction. Rats were slightly warmed under a lamp and conditioned carefully before the measurement. BP was recorded as the mean value of 3 separate measurements obtained at each session and reported herein as mean±SEM. Results are compared using 1-way analysis of variance (ANOVA) and Student-Newman-Keuls method (SigmaStat, SPSS Science, Chicago, Ill.).
In another series of experiments, rats subjected to 5/6 nephrectomy were treated 35 days after surgery according to the dosing schedule described in Example 3 above with a HIF prolyl hydroxylase inhibitor. Individual compound selected from the group consisting of compounds A and C-K were administered by oral gavage at 8, 20, 30, or 40 mg/kg (see Table 1 and Table 2). Systolic blood pressure was recorded at day 35 (baseline) and again immediately following the last dose of compound. Table 1 and Table 2 show changes in systolic blood pressure following four weeks of oral administration of various compounds of the present invention to Nx rats.

On to `COc1ccc(Oc2ccc3c(O)c(C(=O)NCC(=O)O)ncc3c2)cc1` [C, {[4-hydroxy-7-(4-methoxy-phenoxy)-isoquinoline-3-carbonyl]-amino}-acetic acid], for which, for the setting “30 mg/kg oral”, the “SBP (mmHg) Change from Baseline” value was −13.72 mmHg and the “SBP (mmHg) Change from Vehicle” value is −34.03 mmHg.
As to `N#Cc1nc(C(=O)NCC(=O)O)c(O)c2c(Oc3ccccc3)cccc12` [I, [(1-cyano-4-hydroxy-5-phenoxy-isoquinoline-3-carbonyl)-amino]-acetic acid], for the setting “20 mg/kg oral”, the “SBP (mmHg) Change from Vehicle” value is −11.00 mmHg.
Turning to `CC(C)Oc1ccc2c(O)c(C(=O)NCC(=O)O)nc(C#N)c2c1` [Compound D, [(1-cyano-4-hydroxy-7-isopropoxy-isoquinoline-3-carbonyl)-amino]-acetic acid], under “8 mg/kg oral”, the “SBP (mmHg) Change from Baseline” value was −22.14 mmHg and the “SBP (mmHg) Change from Vehicle” value is −12.4 mmHg. Also, for the setting “20 mg/kg oral”, the “SBP (mmHg) Change from Baseline” value is given as −9.25 mmHg and the “SBP (mmHg) Change from Vehicle” value is −24.73 mmHg.
Consider `Cc1cccc(C)c1Oc1ccc2c(O)c(C(=O)NCC(=O)O)nc(C#N)c2c1` [J, {[1-cyano-7-(2,6-dimethyl-phenoxy)-4-hydroxy-isoquinoline-3-carbonyl]-amino}-acetic acid], for which, for the setting “8 mg/kg oral”, the “SBP (mmHg) Change from Vehicle” value is reported as −2.66 mmHg.
As for `N#Cc1nc(C(=O)NCC(=O)O)c(O)c2ccn(Cc3ccc4ccccc4c3)c12` [F, [(7-cyano-4-hydroxy-1-naphthalen-2-ylmethyl-1H-pyrrolo[2,3-c]pyridine-5-carbonyl)-amino]-acetic acid], where the note is “8 mg/kg oral”, the “SBP (mmHg) Change from Baseline” value is on record as −10.58 mmHg and the “SBP (mmHg) Change from Vehicle” value is reported as −23.88 mmHg.
For `COc1ccc(Cn2cc(Br)c3c(O)c(C(=O)NCC(=O)O)nc(C#N)c32)cc1` [K, {[3-bromo-7-cyano-4-hydroxy-1-(4-methoxy-benzyl)-1H-pyrrolo[2,3-c]pyridine-5-carbonyl]-amino}-acetic acid], the “SBP (mmHg) Change from Vehicle” value (8 mg/kg oral) is recorded as −19.92 mmHg.
Consider `COc1ccc(Cn2c(Cl)c(Cl)c3c(O)c(C(=O)NCC(=O)O)nc(C#N)c32)cc1` [H, {[2,3-dichloro-7-cyano-4-hydroxy-1-(4-methoxy-benzyl)-1H-pyrrolo[2,3-c]pyridine-5-carbonyl]-amino}-acetic acid], for which the “SBP (mmHg) Change from Vehicle” value (20 mg/kg oral) is −15.73 mmHg.
For `COc1cccc(Cn2ccc3c(O)c(C(=O)NCC(=O)O)nc(C#N)c32)c1` [E, {[7-cyano-4-hydroxy-1-(3-methoxy-benzyl)-1H-pyrrolo[2,3-c]pyridine-5-carbonyl]-amino}-acetic acid], under “20 mg/kg oral”, the “SBP (mmHg) Change from Baseline” value was −7.12 mmHg and the “SBP (mmHg) Change from Vehicle” value is −18.55 mmHg.
In the case of `N#Cc1nc(C(=O)NCC(=O)O)c(O)c2ccn(Cc3ccccc3F)c12` [G, {[7-cyano-1-(2-fluoro-benzyl)-4-hydroxy-1H-pyrrolo[2,3-c]pyridine-5-carbonyl]-amino}-acetic acid], the “SBP (mmHg) Change from Vehicle” value (8 mg/kg oral) is −19.27 mmHg.
